Data: patent US20110118238A1, “2-ANILINOPURIN-8-ONES AS INHIBITORS OF TTK/MPS1 FOR THE TREATMENT OF PROLIFERATIVE DISORDERS” (ASTRAZENECA AB, priority 2007, published 2011)

Target: T1, N-terminal GST tagged full length human TTK kinase (Homo sapiens, UniProt P33981)
T1 construct: N-terminal GST tagged full length human TTK kinase; GST (N); made in house; host or cells: insect cells
T1 sequence (P33981 1-857): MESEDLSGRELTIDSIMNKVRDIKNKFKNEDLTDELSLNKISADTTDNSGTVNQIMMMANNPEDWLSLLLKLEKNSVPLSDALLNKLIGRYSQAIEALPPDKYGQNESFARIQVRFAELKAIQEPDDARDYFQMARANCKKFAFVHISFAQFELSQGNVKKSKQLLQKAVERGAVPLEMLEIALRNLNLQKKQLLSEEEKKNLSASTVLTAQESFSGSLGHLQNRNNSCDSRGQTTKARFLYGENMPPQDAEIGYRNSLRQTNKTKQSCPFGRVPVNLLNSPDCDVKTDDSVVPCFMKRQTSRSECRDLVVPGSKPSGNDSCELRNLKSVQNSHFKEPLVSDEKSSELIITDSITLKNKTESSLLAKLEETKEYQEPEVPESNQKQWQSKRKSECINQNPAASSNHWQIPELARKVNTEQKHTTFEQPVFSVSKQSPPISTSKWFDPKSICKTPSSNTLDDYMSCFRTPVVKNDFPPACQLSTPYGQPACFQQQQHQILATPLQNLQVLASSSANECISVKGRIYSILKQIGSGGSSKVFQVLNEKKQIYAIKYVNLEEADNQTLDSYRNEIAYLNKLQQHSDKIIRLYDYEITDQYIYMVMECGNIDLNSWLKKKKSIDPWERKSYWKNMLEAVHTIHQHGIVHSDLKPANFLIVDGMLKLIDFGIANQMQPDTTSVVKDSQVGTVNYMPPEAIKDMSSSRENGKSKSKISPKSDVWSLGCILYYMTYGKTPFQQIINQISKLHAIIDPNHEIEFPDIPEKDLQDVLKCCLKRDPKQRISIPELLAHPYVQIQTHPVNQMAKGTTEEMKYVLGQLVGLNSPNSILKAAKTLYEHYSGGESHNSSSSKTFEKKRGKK
Experiment: In Vitro TTK Kinase Assay 2 (Caliper LabChip LC3000)
Type: biochemical
Conditions: recombinant TTK, 12 μM ATP, read-out: EAA2: Enzyme Assay Activity (In Vitro TTK kinase assay 2)
Description: Each reaction was stopped by the addition of EDTA to a concentration of 40 mM in a solution which also comprised 0.1% coating reagent (Caliper LS), 100 mM HEPES pH 7.5, 0.015% v/v Brij™-35 and 5% DMSO. The stopped enzyme reactions were sipped through capillaries onto a Caliper chip where the peptide substrate and phosphorylated product were separated and detected via laser-induced fluorescence.

| SMILES | IC50 [nM] |
| --- | --- |
| COc1cc(C(=O)N2CCC(N3CCCC3)CC2)ccc1Nc1ncc2c(n1)n(C1CCCC1)c(=O)n2C [Example 56, 9-Cyclopentyl-2-({2-methoxy-4-[(4-pyrrolidin-1-ylpiperidin-1-yl)-carbonyl]phenyl}amino)-7-methyl-7,9-dihydro-8H-purin-8-one] | 67.6 |
| COc1cc(C(=O)NC2CCN(C)CC2)ccc1Nc1ncc2c(n1)n(C(C)C)c(=O)n2C [Example 40, 4-[(9-Isopropyl-7-methyl-8-oxo-8,9-dihydro-7H-purin-2-yl)amino]-3-methoxy-N-(1-methylpiperidin-4-yl)benzamide] | 338 |
| COc1cc(OC2CCN(C)CC2)ccc1Nc1ncc2c(n1)n(C(C)C)c(=O)n2C [Example 42, 9-Isopropyl-2-({2-methoxy-4-[(1-methylpiperidin-4-yl)oxy]phenyl}-amino)-7-methyl-7,9-dihydro-8H-purin-8-one] | 68.8 |
| CCN1CCCC1CNC(=O)c1ccc(Nc2ncc3c(n2)n(C2CCCC2)c(=O)n3C)c(OC)c1 (stereo not drawn) [Example 60, 4-[(9-Cyclopentyl-7-methyl-8-oxo-8,9-dihydro-7H-purin-2-yl)-amino]-N-[(1-ethylpyrrolidin-2-yl)methyl]-3-methoxybenzamide] | 114 |
| CC(C)n1c(=O)n(C)c2cnc(Nc3ccc(C(=O)NC4CCN(C)CC4)c(F)c3)nc21 [Example 39, 2-Fluoro-4-[(9-isopropyl-7-methyl-8-oxo-8,9-dihydro-7H-purin-2-yl)-amino]-N-(1-methylpiperidin-4-yl)benzamide] | 2460 |
| Cn1c(=O)n(C2CCCC2)c2nc(Nc3ccc(CCO)cc3)ncc21 [Example 73, 9-Cyclopentyl-2-{[4-(2-hydroxyethyl)phenyl]amino}-7-methyl-7,9-dihydro-8H-purin-8-one] | 106 |
| CNC(=O)c1ccc(Nc2ncc3c(n2)n(C(C)C)c(=O)n3C)c(OC)c1 [Example 41, 4-[(9-Isopropyl-7-methyl-8-oxo-8,9-dihydro-7H-purin-2-yl)amino]-3-methoxy-N-methylbenzamide] | 7130 |
| Cn1c(=O)n(C2CCCC2)c2nc(Nc3ccc(Oc4ccccc4)cc3)ncc21 [Example 75, 9-Cyclopentyl-7-methyl-2-[(4-phenoxyphenyl)amino]-7,9-dihydro-8H-purin-8-one] | 523 |
| COc1cc(N2CCN(C)CC2)ccc1Nc1ncc2c(n1)n(C(C)C)c(=O)n2C [Example 44, 9-Isopropyl-2-{[2-methoxy-4-(4-methylpiperazin-1-yl)phenyl]-amino}-7-methyl-7,9-dihydro-8H-purin-8-one] | 119 |
| COc1cc(C(=O)N2CCN(C3CCN(C)CC3)CC2)ccc1Nc1ncc2c(n1)n(C1CCCC1)c(=O)n2C [Example 51, 9-Cyclopentyl-2-[(2-methoxy-4-{[4-(1-methylpiperidin-4-yl)-piperazin-1-yl]-carbonyl}phenyl)amino]-7-methyl-7,9-dihydro-8H-purin-8-one] | 148 |
| COc1cc(N2CCCN(C)CC2)ccc1Nc1ncc2c(n1)n(C(C)C)c(=O)n2C [Example 48, 9-Isopropyl-2-{[2-methoxy-4-(4-methyl-1,4-diazepan-1-yl)phenyl]-amino}-7-methyl-7,9-dihydro-8H-purin-8-one] | 136 |
| COCCN1CCC(NC(=O)c2ccc(Nc3ncc4c(n3)n(C3CCCC3)c(=O)n4C)c(OC)c2)CC1 [Example 59, 4-[(9-Cyclopentyl-7-methyl-8-oxo-8,9-dihydro-7H-purin-2-yl)-amino]-3-methoxy-N-[1-(2-methoxyethyl)piperidin-4-yl]benzamide] | 74.5 |
| COc1cc(C(=O)NC2CCC(N(C)C)CC2)ccc1Nc1ncc2c(n1)n(C1CCCC1)c(=O)n2C (stereo not drawn) [Example 58] | 136 |
| COc1cc(C(=O)NCCN2CCCCC2)ccc1Nc1ncc2c(n1)n(C1CCCC1)c(=O)n2C [Example 63, 4-[(9-Cyclopentyl-7-methyl-8-oxo-8,9-dihydro-7H-purin-2-yl)-amino]-3-methoxy-N-(2-piperidin-1-ylethyl)benzamide] | 66.4 |
| COc1cc(C(=O)NCCCCN2CCCC2)ccc1Nc1ncc2c(n1)n(C1CCCC1)c(=O)n2C [Example 66, 4-[(9-Cyclopentyl-7-methyl-8-oxo-8,9-dihydro-7H-purin-2-yl)-amino]-3-methoxy-N-(4-pyrrolidin-1-ylbutyl)benzamide] | 132 |
| Cn1c(=O)n(C2CCCC2)c2nc(Nc3ccc(C(=O)c4ccccc4)cc3)ncc21 [Example 71, 2-[(4-Benzoylphenyl)amino]-9-cyclopentyl-7-methyl-7,9-dihydro-8H-purin-8-one] | 586 |
| CCOc1cc(N2CCN(C)CC2)ccc1Nc1ncc2c(n1)n(C(C)C)c(=O)n2C [Example 46, 2-{[2-Ethoxy-4-(4-methylpiperazin-1-yl)phenyl]amino}-9-isopropyl-7-methyl-7,9-dihydro-8H-purin-8-one] | 144 |
| COc1cc(C(=O)O)ccc1Nc1ncc2c(n1)n(C1CCCC1)c(=O)n2C [Example 49, 4-[(9-Cyclopentyl-7-methyl-8-oxo-8,9-dihydro-7H-purin-2-yl)-amino]-3-methoxybenzoic acid] | 72.4 |
| Cn1c(=O)n(C2CCCC2)c2nc(Nc3ccc(N4CCCCC4)cc3)ncc21 [Example 77, 9-Cyclopentyl-7-methyl-2-[(4-piperidin-1-ylphenyl)amino]-7,9-dihydro-8H-purin-8-one] | 109 |

Continued by falling IC50, values first:

| IC50 [nM] | SMILES |
| --- | --- |
| 65.3 | COc1cc(C(=O)N[C@@H]2CCNC2)ccc1Nc1ncc2c(n1)n(C1CCCC1)c(=O)n2C [Example 68, 4-[(9-Cyclopentyl-7-methyl-8-oxo-8,9-dihydro-7H-purin-2-yl)-amino]-3-methoxy-N-[(3R)-pyrrolidin-3-yl]benzamide] |
| 60.3 | COc1cc(C(=O)N2CCN(C)CC2)ccc1Nc1ncc2c(n1)n(C1CCCC1)c(=O)n2C [Example 50, 9-Cyclopentyl-2-({2-methoxy-4-[(4-methylpiperazin-1-yl)carbonyl]-phenyl}amino)-7-methyl-7,9-dihydro-8H-purin-8-one] |
| 45.2 | Cn1c(=O)n(C2CCCC2)c2nc(Nc3ccc(-n4cccn4)cc3)ncc21 [Example 79, 9-Cyclopentyl-7-methyl-2-{[4-(1H-pyrazol-1-yl)phenyl]amino}-7,9-dihydro-8H-purin-8-one] |
| 41.3 | COc1cc(C(=O)N[C@H]2CCNC2)ccc1Nc1ncc2c(n1)n(C1CCCC1)c(=O)n2C [Example 69, 4-[(9-Cyclopentyl-7-methyl-8-oxo-8,9-dihydro-7H-purin-2-yl)-amino]-3-methoxy-N-[(3S)-pyrrolidin-3-yl]benzamide] |
| 36.2 | COc1cc(C(=O)N(C)CCCN(C)C)ccc1Nc1ncc2c(n1)n(C1CCCC1)c(=O)n2C [Example 54, 4-[(9-Cyclopentyl-7-methyl-8-oxo-8,9-dihydro-7H-purin-2-yl)-amino]-N-[3-(dimethylamino)propyl]-3-methoxy-N-methylbenzamide] |
| 35.6 | COCCN1CCN(C(=O)c2ccc(Nc3ncc4c(n3)n(C3CCCC3)c(=O)n4C)c(OC)c2)CC1 [Example 57, 9-Cyclopentyl-2-[(2-methoxy-4-{[4-(2-methoxyethyl)piperazin-1-yl]-carbonyl}phenyl)amino]-7-methyl-7,9-dihydro-8H-purin-8-one] |
| 29.1 | CC(C)Oc1ccc(Nc2ncc3c(n2)n(C2CCCC2)c(=O)n3C)cc1 [Example 74, 9-Cyclopentyl-2-[(4-isopropoxyphenyl)amino]-7-methyl-7,9-dihydro-8H-purin-8-one] |
| 27 | Cn1c(=O)n(C2CCCC2)c2nc(Nc3ccc(N4CCOCC4)c(Cl)c3)ncc21 [Example 72, 2-[(3-Chloro-4-morpholin-4-ylphenyl)amino]-9-cyclopentyl-7-methyl-7,9-dihydro-8H-purin-8-one] |
| 27 | COc1cc(C(=O)N(C)C)ccc1Nc1ncc2c(n1)n(C1CCCC1)c(=O)n2C [Example 65, 4-[(9-Cyclopentyl-7-methyl-8-oxo-8,9-dihydro-7H-purin-2-yl)-amino]-3-methoxy-N,N-dimethylbenzamide] |
| 18.3 | Cn1c(=O)n(C2CCCC2)c2nc(Nc3ccc(-c4cnco4)cc3)ncc21 [Example 76, 9-Cyclopentyl-7-methyl-2-{[4-(1,3-oxazol-5-yl)phenyl]amino}-7,9-dihydro-8H-purin-8-one] |
| 17.5 | COc1cc(C(=O)N2CC[C@@H](N(C)C)C2)ccc1Nc1ncc2c(n1)n(C1CCCC1)c(=O)n2C [Example 55, 9-Cyclopentyl-2-[(4-{[(3R)-3-(dimethylamino)pyrrolidin-1-yl]-carbonyl}-2-methoxyphenyl)amino]-7-methyl-7,9-dihydro-8H-purin-8-one] |
